Measurements: BindingDB's records for patent US20230348456 (Repare Therapeutics, 2023)

These compounds were tested against T1, Membrane-associated tyrosine- and threonine-specific cdc2-inhibitory kinase (Homo sapiens, UniProt Q99640) (assay: Enzymatic Assay).
T1 sequence (Q99640 whole entry): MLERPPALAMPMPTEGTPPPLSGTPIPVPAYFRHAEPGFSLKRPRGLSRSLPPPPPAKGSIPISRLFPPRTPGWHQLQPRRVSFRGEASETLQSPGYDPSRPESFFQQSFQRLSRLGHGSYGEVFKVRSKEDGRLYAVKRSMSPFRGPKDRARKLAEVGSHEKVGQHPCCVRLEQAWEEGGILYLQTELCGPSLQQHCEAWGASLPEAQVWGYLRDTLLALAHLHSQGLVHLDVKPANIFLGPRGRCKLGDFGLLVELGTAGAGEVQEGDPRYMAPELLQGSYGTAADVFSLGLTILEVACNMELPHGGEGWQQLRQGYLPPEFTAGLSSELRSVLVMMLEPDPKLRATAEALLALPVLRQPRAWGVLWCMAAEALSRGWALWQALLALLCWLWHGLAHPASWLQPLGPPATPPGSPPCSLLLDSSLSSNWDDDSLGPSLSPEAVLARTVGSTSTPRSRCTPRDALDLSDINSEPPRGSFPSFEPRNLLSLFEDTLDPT
Procedure: Detection of Myt1 kinase activity utilized a recombinant human Myt1 kinase assay measuring the hydrolysis of ATP using a commercially available ADP-Glo Assay (ADP-Glo Kinase Assay from Promega, 10 000 assays, #V9102). Briefly, 5 μL recombinant human Myt1 (full length PKMYT1 recombinant human protein expressed in insect cells from Thermo Fisher #A33387; 80% purity) was prepared in reaction buffer (70 mM HEPES, 3 mM MgCl2, 3 mM MnCl2, 50 μg/ml PEG 20000, 3 μM Na-orthovanadate, 1.2 mM DTT) and added to 384 well white polystyrene, flat bottom well, non-treated, microplate (Corning #3572). After this, 5 μL of compounds (diluted in reaction buffer to 0.5% DMSO) was added to the microplate and the plate was spun briefly and incubated at 22 C. for 15 minutes. Ultra-Pure Adenosine Triphosphate (ATP) solution (ADP-Glo kit from Promega) was diluted in reaction buffer and 5 μL was added to the microplate, spun down briefly and incubated for 60 minutes at 30 C. The final Myt1 enzyme concentration was 18 nM and the final ATP concentration was 10 μM. After the 60-minute incubation, 15 μL of ADP-Glo reagent was added and the plate was spun briefly and sealed and incubated in the dark for 40 minutes at 22 C. Following this, 30 μL of kinase detection reagent was added per well and the plate was spun briefly, sealed and incubated for 45-60 minutes at 22 C. in the dark. Luminescence was read using the Envision (250 ms integration). T

IC50 | SMILES
8 nM | Nc1c(-c2cccc3[nH]ncc23)cc(-c2nccs2)c2nc(-c3ccc(CN4CCOCC4)cc3)[nH]c(=O)c12 [US20230348456, Compound 39]
4 nM | Nc1c(-c2cccc3[nH]ncc23)cc(-c2cccc(OC3CCOCC3)c2)c2nc(-c3ccncc3)[nH]c(=O)c12 [US20230348456, Compound 65]

Further lines, the compound ahead of its results:

SMILES | IC50
Nc1ccc(-c2nc3c(Br)cc(-c4cccc5[nH]ncc45)c(N)c3c(=O)[nH]2)cn1 [US20230348456, Compound 7] | 4 nM
Nc1c(-c2cccc3[nH]ncc23)cc(-n2cccn2)c2nc(-c3ccncc3)[nH]c(=O)c12 [US20230348456, Compound 77] | 4 nM
Nc1c(-c2cccc3[nH]ncc23)cc(Br)c2nc(-c3ccc(N4CCC5(CC4)COC5)nc3)[nH]c(=O)c12 [US20230348456, Compound 34] | 10 nM
